Columns and labels:
cdc2/cyclinB = cdc2/cyclinB (Homo sapiens, UniProt P06493); experiment: Cyclin-Dependent Kinase Assay cdc2/cyclinB
cdk2/cyclinE = cdk2/cyclinE (Homo sapiens, UniProt P24941); experiment: Cyclin-Dependent Kinase Assay cdk2/cyclinE; conditions: cdk2/E IC50
cdk2/cyclinA = cdk2/cyclinA (Homo sapiens, UniProt P24941); experiment: Cyclin-Dependent Kinase Assay cdk2/cyclinA; conditions: cdk2/A IC50
cdk4/D = cdk4/D (Homo sapiens, UniProt P11802); experiment: Cyclin-Dependent Kinase 4 (cdk4) Assay; format: biochemical; conditions: read-out: cdk4/D IC50
Cdk5/p25 = Cdk5/p25 (Homo sapiens, UniProt Q00535); experiment: Cyclin-Dependent Kinase 5 High Throughput Screening (cdk5-HTS) Assay; format: biochemical; conditions: high throughput screen
How it was run: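 Cdk5/p25 (1.0 μg/mL) phosphorylates GST-RbCOOH (20 μg/mL) in 50 mM Tris pH 7.4 with 10 mM MgCl2 and 20 μM ATP spiked with [γ33P]ATP, 30 min at room temperature. After EDTA stop, substrate captured on glutathione-coated plates; 33P incorporation counted by scintillation; IC50 determined.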

Sequence of cdc2/cyclinB (P06493 whole entry): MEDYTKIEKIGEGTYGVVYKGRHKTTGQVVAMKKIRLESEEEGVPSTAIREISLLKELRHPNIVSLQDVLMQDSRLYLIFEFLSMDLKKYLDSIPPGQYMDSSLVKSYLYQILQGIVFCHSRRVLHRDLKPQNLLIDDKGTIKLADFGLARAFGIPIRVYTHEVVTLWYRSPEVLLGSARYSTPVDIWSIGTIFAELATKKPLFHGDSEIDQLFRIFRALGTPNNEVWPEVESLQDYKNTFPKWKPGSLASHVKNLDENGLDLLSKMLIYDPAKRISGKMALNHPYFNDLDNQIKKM
Sequence of cdc2/cyclinB (P14635 whole entry, further chain): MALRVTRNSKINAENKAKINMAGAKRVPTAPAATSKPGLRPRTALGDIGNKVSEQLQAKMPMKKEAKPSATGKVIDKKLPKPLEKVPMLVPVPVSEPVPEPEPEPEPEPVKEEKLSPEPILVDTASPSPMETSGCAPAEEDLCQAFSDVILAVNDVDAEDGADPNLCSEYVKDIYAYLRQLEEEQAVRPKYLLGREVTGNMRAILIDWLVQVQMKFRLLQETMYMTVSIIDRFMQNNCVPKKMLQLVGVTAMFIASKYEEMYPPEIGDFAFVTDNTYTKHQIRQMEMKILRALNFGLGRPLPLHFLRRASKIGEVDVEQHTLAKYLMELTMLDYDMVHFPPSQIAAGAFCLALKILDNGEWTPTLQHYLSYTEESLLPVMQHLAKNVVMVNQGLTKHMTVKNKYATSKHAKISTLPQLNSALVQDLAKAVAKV
Sequence of cdk4/D (P11802 whole entry): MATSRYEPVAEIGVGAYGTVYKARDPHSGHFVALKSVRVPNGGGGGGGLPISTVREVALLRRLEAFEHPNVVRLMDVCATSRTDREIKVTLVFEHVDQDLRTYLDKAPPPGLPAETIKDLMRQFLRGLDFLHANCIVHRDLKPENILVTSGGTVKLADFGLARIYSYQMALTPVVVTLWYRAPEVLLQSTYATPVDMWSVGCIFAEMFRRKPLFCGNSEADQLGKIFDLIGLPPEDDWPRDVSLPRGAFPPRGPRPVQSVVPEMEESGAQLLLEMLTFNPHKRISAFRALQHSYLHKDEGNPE
Sequence of cdk4/D (P24385 whole entry, further chain): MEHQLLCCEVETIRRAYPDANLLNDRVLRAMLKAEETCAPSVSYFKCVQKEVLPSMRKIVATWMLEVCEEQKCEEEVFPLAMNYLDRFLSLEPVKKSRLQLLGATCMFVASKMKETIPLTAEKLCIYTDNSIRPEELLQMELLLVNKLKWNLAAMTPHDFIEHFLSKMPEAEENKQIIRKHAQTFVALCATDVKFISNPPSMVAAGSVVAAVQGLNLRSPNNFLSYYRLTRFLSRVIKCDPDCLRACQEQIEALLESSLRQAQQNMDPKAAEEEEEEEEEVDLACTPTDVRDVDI

Structure (SMILES) | IC50 (cdc2/cyclinB) [nM] | IC50 (cdk2/cyclinE) [nM] | IC50 (cdk2/cyclinA) [nM] | IC50 (cdk4/D) [nM] | IC50 (Cdk5/p25) [nM]
O=c1ccc2cnc(Nc3ccc4[nH]ncc4c3)nc2n1C1CCCC1 [Example 536, 8-Cyclopentyl-2-(1H-indazol-5-ylamino)-8H-pyrido[2,3-d]pyrimidin-7-one] | 18.5 | 14 | 31.5 | 25 | 19.7
CCC(CC)n1c(=O)ccc2cnc(Nc3ccc(OC)c(OC)c3)nc21 [Example 499, 2-(3,4-Dimethoxy-phenylamino)-8-(1-ethyl-propyl)-8H-pyrido[2,3-d]pyrimidin-7-one] | 46 | 46.3 | 115 | 192 | 12.5
CCC(CC)n1c(=O)ccc2cnc(Nc3cccc(C(F)(F)F)c3)nc21 [Example 487, 8-(1-Ethyl-propyl)-2-(3-trifluoromethyl-phenylamino)-8H-pyrido[2,3-d]pyrimidin-7-one] | 177 | 210 | 728 | 692 | 76.8
CCCCn1c(=O)ccc2cnc(Nc3ccc(OC)cc3)nc21 [Example 385, 8-Butyl-2-(4-methoxy-phenylamino)-8H-pyrido[2,3-d]pyrimidin-7-one] | 155 | 150 | 320 | 1140 | 130
CCC(CC)n1c(=O)ccc2cnc(Nc3cc(OC)cc(C(F)(F)F)c3)nc21 [Example 508, 8-(1-Ethyl-propyl)-2-(3-methoxy-5-trifluoromethyl-phenylamino)-8H-pyrido[2,3-d]pyrimidin-7-one] | 230 | 280 | 2100 | 140 | 70
CCC(C)n1c(=O)ccc2cnc(Nc3ccc(N(C)C(C)=O)cc3)nc21 (centres unmarked) [Example 471, N-[4-(8-sec-Butyl-7-oxo-7,8-dihydro-pyrido[2,3-d]pyrimidin-2-ylamino)-phenyl]-N-methyl-acetamide] | 340 | 220 | 530 | 120 | 49
CCCn1c(=O)ccc2cnc(Nc3ccc(OC)c(OC)c3)nc21 [Example 331, 2-(3,4-Dimethoxy-phenylamino)-8-propyl-8H-pyrido[2,3-d]pyrimidin-7-one] | 415 | 950 | 875 | 2000 | 160
CCCn1c(=O)ccc2cnc(Nc3cc(F)c(F)c(F)c3)nc21 [Example 359, 8-Propyl-2-(3,4,5-trifluoro-phenylamino)-8H-pyrido[2,3-d]pyrimidin-7-one] | 390 | 450 | 430 | 1800 | 180
CCC(C)n1c(=O)ccc2cnc(Nc3cccc([N+](=O)[O-])c3)nc21 (centres unmarked) [Example 453, 8-sec-Butyl-2-(3-nitro-phenylamino)-8H-pyrido[2,3-d]pyrimidin-7-one] | 51.5 | 52.7 | 105 | 330 | 37
CC(=O)Nc1cc(Nc2ncc3ccc(=O)n(C(C)C)c3n2)ccc1C#N [Example 424, N-[2-Cyano-5-(8-isopropyl-7-oxo-7,8-dihydro-pyrido[2,3-d]pyrimidin-2-ylamino)-phenyl]-acetamide] | 520 | 360 | 460 | 100 | 39
CCC(C)n1c(=O)ccc2cnc(Nc3ccc(NC(=O)OC(C)(C)C)cc3)nc21 (centres unmarked) [Example 450, [4-(8-sec-Butyl-7-oxo-7,8-dihydro-pyrido[2,3-d]pyrimidin-2-ylamino)-phenyl]-carbamic acid tert-butyl ester] | 140 | 130 | 265 | 113 | 64.5
CCCn1c(=O)ccc2cnc(Nc3ccc(OC)cc3)nc21 [Example 329, 2-(4-Methoxy-phenylamino)-8-propyl-8H-pyrido[2,3-d]pyrimidin-^7-one] | 320 | 275 | 425 | 315 | 160
CCCn1c(=O)ccc2cnc(Nc3ccc(C#N)c(NC(C)=O)c3)nc21 [Example 340, N-[2-Cyano-5-(7-oxo-8-propyl-7,8-dihydro-pyrido[2,3-d]pyrimidin-2-ylamino)-phenyl]-acetamide] | 1300 | 350 | 960 | 310 | 170
CC(C)n1c(=O)ccc2cnc(Nc3ccc(OC(F)(F)F)cc3)nc21 [Example 444, 8-Isopropyl-2-(4-trifluoromethoxy-phenylamino)-8H-pyrido[2,3-d]pyrimidin-7-one] | 530 | 710 | 75 | 360 | 63
O=c1ccc2cnc(Nc3ccc(F)c(C(F)(F)F)c3)nc2n1CC1CC1 [Example 570, 8-Cyclopropylmethyl-2-(4-fluoro-3-trifluoromethyl-phenylamino)-8H-pyrido[2,3-d]pyrimidin-7-one] | 170 | 63 | 430 | 680 | 50

Further compounds by falling IC50 (cdc2/cyclinB), results first:

IC50 (cdc2/cyclinB) [nM] | IC50 (cdk2/cyclinE) [nM] | IC50 (cdk2/cyclinA) [nM] | IC50 (cdk4/D) [nM] | IC50 (Cdk5/p25) [nM] | Structure (SMILES)
450 | 370 | 220 | 910 | 490 | O=C(O)c1cc(Nc2ncc3ccc(=O)n(C4CCCC4)c3n2)ccc1O [Example 560, 5-(8-Cyclopentyl-7-oxo-7,8-dihydro-pyrido[2,3-d]pyrimidin-2-ylamino)-2-hydroxy-benzoic acid]
435 | 317 | 1010 | 2000 | 250 | O=c1ccc2cnc(Nc3ccc(O)c(Cl)c3)nc2n1CC(F)(F)F [Example 597, 2-(3-Chloro-4-hydroxy-phenylamino)-8-(2,2,2-trifluoro-ethyl)-8H-pyrido[2,3-d]pyrimidin-7-one]
340 | 177 | 215 | 168 | 74.5 | CCC(C)n1c(=O)ccc2cnc(Nc3ccccc3)nc21 (centres unmarked) [Example 446, 8-sec-Butyl-2-phenylamino-8H-pyrido[2,3-d]pyrimidin-7-one]
215 | 138 | 331 | 486 | 69.4 | CCCn1c(=O)ccc2cnc(Nc3ccc(OC)c(Cl)c3)nc21 [Example 310, 2-(3-Chloro-4-methoxy-phenylamino)-8-propyl-8H-pyrido[2,3-d]pyrimidin-7-one]
180 | 210 | 310 | 270 | 120 | CCC(CC)n1c(=O)ccc2cnc(Nc3cc(F)cc(F)c3)nc21 [Example 510, 2-(3,5-Difluoro-phenylamino)-8-(1-ethyl-propyl)-8H-pyrido[2,3-d]pyrimidin-7-one]
170 | 130 | 310 | 150 | 17 | CCC(C)n1c(=O)ccc2cnc(Nc3ccc(I)c(Cl)c3)nc21 (centres unmarked) [Example 464, 8-sec-Butyl-2-(3-chloro-4-iodo-phenylamino)-8H-pyrido[2,3-d]pyrimidin-7-one]
159 | 161 | 855 | 1550 | 106 | CCCn1c(=O)ccc2cnc(Nc3cc(Cl)cc(Cl)c3)nc21 [Example 319, 2-(3,5-Dichloro-phenylamino)-8-propyl-8H-pyrido[2,3-d]pyrimidin-7-one]

— US20040224958A1, “Pyridopyrimidinone derivatives for treatment of neurodegenerative disease” (priority 2000, published 2004)
